Consider three compounds from ChEMBL document CHEMBL3046224, “Synthesis of novel 2-phenylsulfonylhydrazono-3-(2',3',4',6'-tetra-O-acetyl-beta-d-glucopyranosyl)thiazolidine-4-ones from thiosemicarbazide precursors” (2006).

Common to all, as to format: functional
Conditions in all cases: read-out: GI

In assay [1] the test system is Botryosphaeria berengeriana. The experiment in a line: Fungicidal activity against Botryosphaeria berengeriana assessed as growth inhibition at 50 ppm relative to control.
The test system of assay [2] is Phomopsis asparagi. Put plainly: Fungicidal activity against Phomopsis asparagi assessed as growth inhibition at 50 ppm relative to control.
Assay [3] concerns Brassica rapa subsp. oleifera. Put plainly: Herbicidal activity against Brassica rapa subsp. oleifera assessed as growth inhibition at 1.5 kg/ha applied to soil relative to control.

Structures are written as SMILES.

Take `CC(=O)O[C@@H]1[C@@H](OC(C)=O)[C@H](OC(C)=O)CO[C@H]1NC(=S)NNS(=O)(=O)c1ccccc1`: the inhibition of growth at 50 ppm in assay [1] and in assay [2] was 30% each time.
For `CC(=O)OC[C@H]1O[C@@H](NC(=S)NNS(=O)(=O)c2ccc(C)cc2)[C@H](OC(C)=O)[C@@H](OC(C)=O)[C@@H]1OC(C)=O`, the inhibition of growth at 50 ppm in assay [1] and in assay [2] was 30% each time.
As for `CC(=O)OC[C@H]1O[C@@H](N2C(=O)CS/C2=N\NS(=O)(=O)c2ccc(C)cc2)[C@H](OC(C)=O)[C@@H](OC(C)=O)[C@@H]1OC(C)=O`, in assay [3], the inhibition of growth at 1500 g/ha came to 39.8%. Moreover, the inhibition of growth at 50 ppm in assay [1] and in assay [2] was 30% throughout.
